Target: T1, WIZ (Homo sapiens, UniProt O95785+Q96SW2)
T1 construct: expressed in transfected cells
Assay: Quantification of WIZ protein levels in HiBit tag fusion protein assay (WIZ HiBit assay in 293T cells)
Format: cell-based
Conditions: for Dmax at 25 µM / remaining activity at 25 µM: HEK-293T; for Dmax at 25 µM / % degradation of WIZ (100-Amax): 100 minus Amax at 25 uM; for Dmax at 25 µM: read-out: % degradation of WIZ (100-Amax); for remaining activity at 25 µM / WIZ Amax: DMSO-normalized, curve-fitted percentage of WIZ-HiBit remaining at 25 uM; for remaining activity at 25 µM: read-out: WIZ Amax; for DC50: WIZ HiBit assay in 293T cells, 10-point, 5-fold dilution, highest concentration 25 μM, about 18 hours, read-out: WIZ AC50
Protocol: The HiBit system from Promega was used to develop high-throughput and quantitative assays to measure changes in WIZ protein levels in response to compounds. The HiBit tag was derived from a split Nanoluciferase and has the following protein sequence: […] (SEQ ID NO: 1). The complementary fragment of Nanoluciferase (known as LgBit, from Promega), was added to the HiBit tag to form an active Nanoluciferase enzyme whose activity can be precisely measured. In this way, the levels of a fusion protein with the HiBit tag can be quantified in cell lysates.
Lentiviral vectors, based on the Invitrogen™ pLenti6.2/V5 DEST backbone were constructed that places the HiBit tag upstream of WIZ and expressed the fusion protein from an HSVTK promotor.
To ensure moderate and consistent expression of the HiBit-WIZ fusion protein across all cells in the population, stable cell lines were constructed from cells harboring a single copy of the construct. Lentivirus packaged with the constructs were made using the ViraPower™kit from Invitrogen™. 293T cells from ATCC (Catalog number: CRL-3216), were infected with the virus at low multiplicity of infection and selected by 5 μg/mL blasticidin in culture media for 2 weeks.
The levels of HiBit-WIZ tagged fusion proteins in compound-treated cell lines were measured as follows:
On day 1, cells were diluted to 1.0×10^6 cells/ml in normal growth medium. 20 μL of cell suspension were plated in each well of a solid white 384-well plate. Plates were incubated overnight in a 37° C. and 5% CO2 humidified tissue culture incubator.
On day 2, serial dilutions of compounds were made in 384-well plates. Compound plates were set up with DMSO in columns 1, 2, 23, 24, and 10-point compound dilution series in column 3-12 and column 13-22. 10 mM stock solution of compound were placed into column 3 or 13 and a 1:5 serial dilution was carried out until there was a 10-point dilution series per compound. 50 nL of diluted compounds were transferred into the plated cells by Echo® (Labcyte) acoustic transfer. The highest concentration of compound was 25 μM. Plates were incubated overnight (about 18 hours) in a 37° C. and 5% CO2 humidified tissue culture incubator.
On day 3, plates were removed from the incubator and allowed to equilibrate at room temperature for 60 minutes. HiBit substrate (Nano-Glo® HiBit Lytic Detection System, Promega Catalogue number: N3050) was added as described by the manufacturers protocols. Plates were incubated at room temperature for 30 minutes and luminescence was read using an EnVision® reader (PerkinElmer®). Data was analyzed and visualized using the Spotfire® software package.
WIZ Amax reflects the DMSO-normalized, curve-fitted percentage of WIZ-HiBit remaining at 25 uM. It was calculated by normalizing DMSO controls to 100%, parametric curve fitting of the dose response data (10-point, 5-fold), followed by calculation of response at 25 uM using the fitted equation (nd=not determined).

T1 sequence (O95785 whole entry): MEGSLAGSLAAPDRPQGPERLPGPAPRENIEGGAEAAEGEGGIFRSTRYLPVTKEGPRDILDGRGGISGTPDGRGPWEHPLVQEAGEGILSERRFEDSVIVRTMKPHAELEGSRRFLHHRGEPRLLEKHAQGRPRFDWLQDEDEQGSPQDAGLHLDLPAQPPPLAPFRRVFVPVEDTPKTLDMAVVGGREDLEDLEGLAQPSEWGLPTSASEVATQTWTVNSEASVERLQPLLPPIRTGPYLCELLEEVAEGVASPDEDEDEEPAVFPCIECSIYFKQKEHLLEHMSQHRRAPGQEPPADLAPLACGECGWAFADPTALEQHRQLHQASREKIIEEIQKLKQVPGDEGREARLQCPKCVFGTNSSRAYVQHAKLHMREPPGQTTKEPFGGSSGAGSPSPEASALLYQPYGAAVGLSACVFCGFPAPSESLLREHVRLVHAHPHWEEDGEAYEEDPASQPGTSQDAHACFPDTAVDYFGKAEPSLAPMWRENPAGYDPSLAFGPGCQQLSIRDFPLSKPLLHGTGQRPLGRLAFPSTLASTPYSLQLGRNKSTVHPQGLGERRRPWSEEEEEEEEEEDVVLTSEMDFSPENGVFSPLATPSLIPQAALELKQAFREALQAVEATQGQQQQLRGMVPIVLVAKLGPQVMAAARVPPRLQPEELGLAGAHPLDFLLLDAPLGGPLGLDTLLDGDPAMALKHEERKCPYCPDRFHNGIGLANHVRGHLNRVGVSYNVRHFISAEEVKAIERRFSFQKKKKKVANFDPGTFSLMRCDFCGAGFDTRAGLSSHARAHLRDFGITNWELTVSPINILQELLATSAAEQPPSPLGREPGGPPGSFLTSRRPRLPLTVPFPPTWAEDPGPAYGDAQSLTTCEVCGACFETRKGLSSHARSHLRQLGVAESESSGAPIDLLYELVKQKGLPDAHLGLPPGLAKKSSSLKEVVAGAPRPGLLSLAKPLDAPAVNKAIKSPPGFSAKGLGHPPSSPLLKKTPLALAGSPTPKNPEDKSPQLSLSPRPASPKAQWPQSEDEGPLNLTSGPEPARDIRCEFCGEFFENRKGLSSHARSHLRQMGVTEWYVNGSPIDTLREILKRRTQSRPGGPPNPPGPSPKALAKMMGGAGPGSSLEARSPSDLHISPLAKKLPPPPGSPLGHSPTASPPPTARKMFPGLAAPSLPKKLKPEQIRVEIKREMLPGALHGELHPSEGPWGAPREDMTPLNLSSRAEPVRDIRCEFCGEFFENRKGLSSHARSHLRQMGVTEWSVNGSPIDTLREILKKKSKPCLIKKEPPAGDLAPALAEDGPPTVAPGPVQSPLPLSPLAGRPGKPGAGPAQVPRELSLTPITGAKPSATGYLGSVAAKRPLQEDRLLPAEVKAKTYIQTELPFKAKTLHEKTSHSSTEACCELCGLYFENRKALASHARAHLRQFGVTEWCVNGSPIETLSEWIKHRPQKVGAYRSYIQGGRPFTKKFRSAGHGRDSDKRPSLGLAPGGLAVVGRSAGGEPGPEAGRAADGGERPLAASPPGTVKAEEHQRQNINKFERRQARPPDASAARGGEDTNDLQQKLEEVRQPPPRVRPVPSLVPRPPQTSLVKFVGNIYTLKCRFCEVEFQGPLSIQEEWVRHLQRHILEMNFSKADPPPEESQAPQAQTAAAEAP
T1 sequence (Q96SW2 whole entry): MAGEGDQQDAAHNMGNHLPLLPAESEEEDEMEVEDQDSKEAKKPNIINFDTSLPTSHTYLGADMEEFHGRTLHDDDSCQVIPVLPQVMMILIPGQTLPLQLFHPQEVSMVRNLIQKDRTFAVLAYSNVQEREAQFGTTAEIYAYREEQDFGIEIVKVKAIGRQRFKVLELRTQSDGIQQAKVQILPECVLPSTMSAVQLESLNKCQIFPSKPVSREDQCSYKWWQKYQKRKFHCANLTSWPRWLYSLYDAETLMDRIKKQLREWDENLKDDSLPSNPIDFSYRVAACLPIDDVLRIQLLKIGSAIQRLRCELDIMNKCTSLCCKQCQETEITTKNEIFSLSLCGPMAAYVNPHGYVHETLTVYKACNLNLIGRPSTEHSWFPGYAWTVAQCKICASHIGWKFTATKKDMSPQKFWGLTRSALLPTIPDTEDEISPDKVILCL
T1 sequence (Q16531 whole entry partner): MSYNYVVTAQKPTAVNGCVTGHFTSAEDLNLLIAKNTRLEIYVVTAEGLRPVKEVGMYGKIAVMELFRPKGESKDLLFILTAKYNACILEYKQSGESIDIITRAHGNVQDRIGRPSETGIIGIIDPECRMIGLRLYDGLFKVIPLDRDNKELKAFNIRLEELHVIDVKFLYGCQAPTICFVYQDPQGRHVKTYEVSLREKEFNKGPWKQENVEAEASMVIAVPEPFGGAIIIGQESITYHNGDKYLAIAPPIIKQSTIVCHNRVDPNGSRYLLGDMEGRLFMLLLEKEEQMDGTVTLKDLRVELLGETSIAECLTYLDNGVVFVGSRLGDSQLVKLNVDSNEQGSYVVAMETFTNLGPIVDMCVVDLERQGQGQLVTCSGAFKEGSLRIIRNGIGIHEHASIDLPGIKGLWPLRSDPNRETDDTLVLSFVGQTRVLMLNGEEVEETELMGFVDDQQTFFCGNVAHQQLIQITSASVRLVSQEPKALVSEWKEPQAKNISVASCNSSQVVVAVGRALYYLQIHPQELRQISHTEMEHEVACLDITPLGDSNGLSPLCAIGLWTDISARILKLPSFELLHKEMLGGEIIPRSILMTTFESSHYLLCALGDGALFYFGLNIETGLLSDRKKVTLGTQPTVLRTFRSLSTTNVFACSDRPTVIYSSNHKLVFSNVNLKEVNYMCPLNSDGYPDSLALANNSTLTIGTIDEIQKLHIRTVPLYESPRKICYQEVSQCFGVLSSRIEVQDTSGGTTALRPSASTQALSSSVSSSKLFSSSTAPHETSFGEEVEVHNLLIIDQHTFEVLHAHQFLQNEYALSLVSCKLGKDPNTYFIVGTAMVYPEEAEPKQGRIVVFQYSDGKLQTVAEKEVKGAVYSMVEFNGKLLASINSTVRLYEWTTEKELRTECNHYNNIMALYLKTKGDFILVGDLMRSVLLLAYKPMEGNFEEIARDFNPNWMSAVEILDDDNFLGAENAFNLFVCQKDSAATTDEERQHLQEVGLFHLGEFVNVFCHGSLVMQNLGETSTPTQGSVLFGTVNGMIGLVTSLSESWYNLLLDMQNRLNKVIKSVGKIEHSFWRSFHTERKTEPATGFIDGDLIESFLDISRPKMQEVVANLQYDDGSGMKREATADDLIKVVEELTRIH

Row | Structure (SMILES) | Dmax at 25 µM [%] | remaining activity at 25 µM [%] | DC50 [nM] | % degradation of WIZ (100-Amax) [%] | WIZ Amax [%]
1 | CCN1CCN(Cc2ccc3onc(N4CCC(=O)NC4=O)c3c2)[C@H](C)C1 [Example 66, (R)-1-(5-((4-ethyl-2-methylpiperazin-1-yl)methyl)benzo[d]isoxazol-3-yl)dihydropyrimidine-2,4(1H,3H)-dione] | 86 | 14 | 45 | – | –
2 | CN1[C@@H]2CC[C@H]1CC(Cc1ccc3onc(N4CCC(=O)NC4=O)c3c1)C2 (stereo partly drawn) [Example 58, 1-(5-(((1R,5S)-8-methyl-8-azabicyclo[3.2.1]octan-3-yl)methyl)benzo[d]isoxazol-3-yl)dihydropyrimidine-2,4(1H,3H)-dione] | 89 | 11 | 20 | – | –
3 | CN1[C@@H]2CC[C@H]1CC(Cc1ccc3onc(N4CCC(=O)NC4=O)c3c1)C2 (stereo partly drawn) [Example 59, 1-(5-(((1R,5S)-8-methyl-8-azabicyclo[3.2.1]octan-3-yl)methyl)benzo[d]isoxazol-3-yl)dihydropyrimidine-2,4(1H,3H)-dione] | – | – | 25 | 84 | 16
4 | O=C1CCN(c2noc3ccc(CN4CCN(CC5CCCCC5)CC4)cc23)C(=O)N1 [Example 21, 1-(5-((4-(cyclohexylmethyl)piperazin-1-yl)methyl)benzo[d]isoxazol-3-yl)dihydropyrimidine-2,4(1H,3H)-dione] | 90 | 10 | 19 | – | –
5 | CC(C)CN1CCCC(Cc2ccc3onc(N4CCC(=O)NC4=O)c3c2)C1 (stereo not drawn) [Example 46, 1-(5-((1-isobutylpiperidin-3-yl)methyl)benzo[d]isoxazol-3-yl)dihydropyrimidine-2,4(1H,3H)-dione] | 77 | 23 | 197 | – | –
6 | O=C1CCN(c2noc3ccc(CN4[C@@H]5CC[C@H]4CNC5)cc23)C(=O)N1 [Example 102, 1-(5-(((1R,5S)-3,8-diazabicyclo[3.2.1]octan-8-yl)methyl)benzo[d]isoxazol-3-yl)dihydropyrimidine-2,4(1H,3H)-dione] | 80 | 20 | 462 | – | –
7 | CC(C)(C)OC(=O)N1[C@@H]2CC[C@H]1CC(Cc1ccc3onc(N4CCC(=O)NC4=O)c3c1)C2 (single isomer, unassigned) [Example 54] | – | – | 196 | 92 | 8
8 | Cc1c(CN2CCN(C)[C@@H](C)C2)ccc2onc(N3CCC(=O)NC3=O)c12 [Example 129, (S)-1-(5-((3,4-dimethylpiperazin-1-yl)methyl)-4-methylbenzo[d]isoxazol-3-yl)dihydropyrimidine-2,4(1H,3H)-dione] | 86 | 14 | 9 | – | –
9 | C[C@@H]1CN(S(=O)(=O)N2CCCC2)CCN1Cc1ccc2onc(N3CCC(=O)NC3=O)c2c1 [Example 74, (R)-1-(5-((2-methyl-4-(pyrrolidin-1-ylsulfonyl)piperazin-1-yl)methyl)benzo[d]isoxazol-3-yl)dihydropyrimidine-2,4(1H,3H)-dione] | 76 | 24 | 437 | – | –
10 | CCN1CCC(Cc2ccc3onc(N4CCC(=O)NC4=O)c3c2)CC1 [Example 8, 1-(5-((1-ethylpiperidin-4-yl)methyl)benzo[d]isoxazol-3-yl)dihydropyrimidine-2,4(1H,3H)-dione] | 91 | 9 | 16 | – | –

Second part, led by results:

Row | Dmax at 25 µM [%] | remaining activity at 25 µM [%] | DC50 [nM] | Structure (SMILES) | % degradation of WIZ (100-Amax) [%] | WIZ Amax [%]
11 | 91 | 9 | 99 | CC(C)CN1CCN(Cc2ccc3onc(N4CCC(=O)NC4=O)c3c2)[C@@H](C)C1 [Example 32, (S)-1-(5-((4-isobutyl-2-methylpiperazin-1-yl)methyl)benzo[d]isoxazol-3-yl)dihydropyrimidine-2,4(1H,3H)-dione] | – | –
12 | 92 | 8 | 1.2 | O=C1CCN(c2noc3ccc(CC4CCN(CC5CCC(F)(F)CC5)CC4)cc23)C(=O)N1 [Example 2, 1-(5-((1-((4,4-difluorocyclohexyl)methyl)piperidin-4-yl)methyl)benzo[d]isoxazol-3-yl)dihydropyrimidine-2,4(1H,3H)-dione] | – | –
13 | 86 | 14 | 56 | C[C@H]1CN(CC2CCOCC2)[C@@H](C)CN1Cc1ccc2onc(N3CCC(=O)NC3=O)c2c1 [Example 107, 1-(5-(((2S,5S)-2,5-dimethyl-4-((tetrahydro-2H-pyran-4-yl)methyl)piperazin-1-yl)methyl)benzo[d]isoxazol-3-yl)dihydropyrimidine-2,4(1H,3H)-dione] | – | –
14 | 85 | 15 | 115 | COC[C@H]1CN(Cc2ccc3onc(N4CCC(=O)NC4=O)c3c2)CCN1CC(C)C [Example 114, (R)-1-(5-((4-isobutyl-3-(methoxymethyl)piperazin-1-yl)methyl)benzo[d]isoxazol-3-yl)dihydropyrimidine-2,4(1H,3H)-dione] | – | –
15 | 90 | 10 | 45 | CN1CCC(Cc2ccc3onc(N4CCC(=O)NC4=O)c3c2)CC1 [Example 10, 1-(5-((1-methylpiperidin-4-yl)methyl)benzo[d]isoxazol-3-yl)dihydropyrimidine-2,4(1H,3H)-dione] | – | –
16 | 84 | 16 | 28 | CN1CCCN(Cc2ccc3onc(N4CCC(=O)NC4=O)c3c2)CC1 [Example 63, 1-(5-((4-methyl-1,4-diazepan-1-yl)methyl)benzo[d]isoxazol-3-yl)dihydropyrimidine-2,4(1H,3H)-dione] | – | –
17 | 89 | 11 | 9 | C[C@@H]1CN(CC2CCOCC2)CCN1Cc1ccc2onc(N3CCC(=O)NC3=O)c2c1 [Example 67, (R)-1-(5-((2-methyl-4-((tetrahydro-2H-pyran-4-yl)methyl)piperazin-1-yl)methyl)benzo[d]isoxazol-3-yl)dihydropyrimidine-2,4(1H,3H)-dione] | – | –
18 | 78 | 22 | 940 | O=C1CCN(c2noc3ccc(CC4CCCNC4)cc23)C(=O)N1 (stereo not drawn) [Example 43, 1-(5-(piperidin-3-ylmethyl)benzo[d]isoxazol-3-yl)dihydropyrimidine-2,4(1H,3H)-dione] | – | –
19 | 82 | 18 | 1010 | CC(C)(C)OC(=O)N1CCCC(Cc2ccc3onc(N4CCC(=O)NC4=O)c3c2)C1 (stereo not drawn) [Example 42, tert-butyl 3-((3-(2,4-dioxotetrahydropyrimidin-1 (2H)-yl)benzo[d]isoxazol-5-yl)methyl)piperidine-1-carboxylate] | – | –
20 | 81 | 19 | 298 | CC(C)(C)OC(=O)N1CCN(Cc2ccc3onc(N4CCC(=O)NC4=O)c3c2)CC1(C)C [Example 91, tert-butyl 4-((3-(2,4-dioxotetrahydropyrimidin-1(2H)-yl)benzo[d]isoxazol-5-yl)methyl)-2,2-dimethylpiperazine-1-carboxylate] | – | –
21 | 90 | 10 | 44 | Cc1ccccc1CN1CCC(Cc2ccc3onc(N4CCC(=O)NC4=O)c3c2)CC1 [Example 12, 1-(5-((1-(2-methylbenzyl)piperidin-4-yl)methyl)benzo[d]isoxazol-3-yl)dihydropyrimidine-2,4(1H,3H)-dione] | – | –

Reference: patent US20250276964A1 (Novartis AG, priority 2021, published 2025)
